{"source": "the supplement of paper PMC10307832", "experiment_in_all_cases": "relative viability (nuclei count vs DMSO), 5 days (fraction); higher = more cells survive", "key": {"LC-2-ad": {"system": "LC-2-ad", "conditions": "first compound 8 µM", "summary_of_the_method": "(§1)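 Relative viability was taken as the ratio of nuclei in treated wells to nuclei in vehicle wells. Lung cancer cell lines in 1536-well plates received compounds by pin tool one day after seeding, either one drug alone or a fixed anchor-drug dose plus five library-drug doses (not always all listed) in √10 steps. Nuclei were counted on 4× images after 5 days of treatment, and values are medians of duplicate plates.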"}, "LCLC-97TM1": {"system": "LCLC-97TM1", "summary_of_the_method": "as §1"}, "LU99A": {"system": "LU99A", "summary_of_the_method": "as §1"}, "LXF-289": {"system": "LXF-289", "summary_of_the_method": "as §1"}, "NCI-H1993": {"system": "NCI-H1993", "summary_of_the_method": "as §1"}, "NCI-H2009": {"system": "NCI-H2009", "summary_of_the_method": "as §1"}, "NCI-H2087": {"system": "NCI-H2087", "summary_of_the_method": "as §1"}, "NCI-H2126": {"system": "NCI-H2126", "summary_of_the_method": "as §1"}, "NCI-H2170": {"system": "NCI-H2170", "summary_of_the_method": "as §1"}, "PC-14": {"system": "PC-14", "summary_of_the_method": "as §1"}, "PC-3 [JPC-3]": {"system": "PC-3 [JPC-3]", "summary_of_the_method": "as §1"}, "SK-MES-1": {"system": "SK-MES-1", "summary_of_the_method": "as §1"}}}
{"smiles": "O=c1[nH]c2ccccc2n1C1CCN(CCCC(c2ccc(F)cc2)c2ccc(F)cc2)CC1", "note": "[Pimozide] + Nc1nc2[nH]cc(CCc3ccc(C(=O)N[C@@H](CCC(=O)O)C(=O)O)cc3)c2c(=O)[nH]1 [Pemetrexed] (partner 0.2 µM)", "values": [{"measurement": "relative viability", "setting": "LC-2-ad", "value": 0.254}, {"measurement": "relative viability", "setting": "LCLC-97TM1; first compound 0.08 µM", "value": 0.2}, {"measurement": "relative viability", "setting": "LCLC-97TM1; first compound 0.253 µM", "value": 0.177}, {"measurement": "relative viability", "setting": "LCLC-97TM1; first compound 0.8 µM", "value": 0.19}, {"measurement": "relative viability", "setting": "LCLC-97TM1; first compound 2.53 µM", "value": 0.18}, {"measurement": "relative viability", "setting": "LCLC-97TM1; first compound 8 µM", "value": 0.156}, {"measurement": "relative viability", "setting": "LU99A; first compound 0.08 µM", "value": 0.277}, {"measurement": "relative viability", "setting": "LU99A; first compound 0.8 µM", "value": 0.179}, {"measurement": "relative viability", "setting": "LU99A; first compound 2.53 µM", "value": 0.185}, {"measurement": "relative viability", "setting": "LU99A; first compound 8 µM", "value": 0.191}, {"measurement": "relative viability", "setting": "LXF-289; first compound 0.08 µM", "value": 0.859}, {"measurement": "relative viability", "setting": "LXF-289; first compound 0.253 µM", "value": 0.873}, {"measurement": "relative viability", "setting": "LXF-289; first compound 0.8 µM", "value": 0.859}, {"measurement": "relative viability", "setting": "LXF-289; first compound 2.53 µM", "value": 0.869}, {"measurement": "relative viability", "setting": "LXF-289; first compound 8 µM", "value": 0.874}, {"measurement": "relative viability", "setting": "NCI-H1993; first compound 0.08 µM", "value": 0.487}, {"measurement": "relative viability", "setting": "NCI-H1993; first compound 0.253 µM", "value": 0.548}, {"measurement": "relative viability", "setting": "NCI-H1993; first compound 0.8 µM", "value": 0.512}, {"measurement": "relative viability", "setting": "NCI-H1993; first compound 2.53 µM", "value": 0.482}, {"measurement": "relative viability", "setting": "NCI-H1993; first compound 8 µM", "value": 0.501}, {"measurement": "relative viability", "setting": "NCI-H2009; first compound 0.08 µM", "value": 1.07}, {"measurement": "relative viability", "setting": "NCI-H2009; first compound 0.253 µM", "value": 1}, {"measurement": "relative viability", "setting": "NCI-H2009; first compound 0.8 µM", "value": 0.975}, {"measurement": "relative viability", "setting": "NCI-H2009; first compound 2.53 µM", "value": 0.963}, {"measurement": "relative viability", "setting": "NCI-H2009; first compound 8 µM", "value": 0.973}, {"measurement": "relative viability", "setting": "NCI-H2087; first compound 0.08 µM", "value": 0.655}, {"measurement": "relative viability", "setting": "NCI-H2087; first compound 0.253 µM", "value": 0.608}, {"measurement": "relative viability", "setting": "NCI-H2087; first compound 2.53 µM", "value": 0.616}, {"measurement": "relative viability", "setting": "NCI-H2087; first compound 8 µM", "value": 0.642}, {"measurement": "relative viability", "setting": "NCI-H2126; first compound 0.08 µM", "value": 0.65}, {"measurement": "relative viability", "setting": "NCI-H2126; first compound 0.253 µM", "value": 0.659}, {"measurement": "relative viability", "setting": "NCI-H2126; first compound 0.8 µM", "value": 0.637}, {"measurement": "relative viability", "setting": "NCI-H2126; first compound 2.53 µM", "value": 0.659}, {"measurement": "relative viability", "setting": "NCI-H2126; first compound 8 µM", "value": 0.652}, {"measurement": "relative viability", "setting": "NCI-H2170; first compound 0.08 µM", "value": 0.273}, {"measurement": "relative viability", "setting": "NCI-H2170; first compound 0.253 µM", "value": 0.242}, {"measurement": "relative viability", "setting": "NCI-H2170; first compound 0.8 µM", "value": 0.263}, {"measurement": "relative viability", "setting": "NCI-H2170; first compound 2.53 µM", "value": 0.258}, {"measurement": "relative viability", "setting": "NCI-H2170; first compound 8 µM", "value": 0.258}, {"measurement": "relative viability", "setting": "PC-14; first compound 0.253 µM", "value": 0.14}, {"measurement": "relative viability", "setting": "PC-14; first compound 0.8 µM", "value": 0.14}, {"measurement": "relative viability", "setting": "PC-14; first compound 2.53 µM", "value": 0.0963}, {"measurement": "relative viability", "setting": "PC-14; first compound 8 µM", "value": 0.063}, {"measurement": "relative viability", "setting": "PC-3 [JPC-3]; first compound 0.253 µM", "value": 1.08}, {"measurement": "relative viability", "setting": "PC-3 [JPC-3]; first compound 0.8 µM", "value": 1.04}, {"measurement": "relative viability", "setting": "PC-3 [JPC-3]; first compound 2.53 µM", "value": 1.08}, {"measurement": "relative viability", "setting": "PC-3 [JPC-3]; first compound 8 µM", "value": 0.985}, {"measurement": "relative viability", "setting": "SK-MES-1; first compound 0.08 µM", "value": 0.982}, {"measurement": "relative viability", "setting": "SK-MES-1; first compound 0.253 µM", "value": 0.861}, {"measurement": "relative viability", "setting": "SK-MES-1; first compound 0.8 µM", "value": 0.919}, {"measurement": "relative viability", "setting": "SK-MES-1; first compound 2.53 µM", "value": 0.888}, {"measurement": "relative viability", "setting": "SK-MES-1; first compound 8 µM", "value": 0.902}]}
